Assay results from patent US8247211B2, “Glycopeptide antibiotics” (American Cyanamid Company, priority 2001, dated 2012).
Converted amounts (≈) assume the structure as drawn.

Columns and labels:
Experiment in all cases: In vitro antibacterial evaluation: minimum inhibitory concentration (MIC), broth dilution method
Assay type in all cases: cell-based
Conditions in all cases: 18 hours at 35° C.
Enterococcus sp. = system: Enterococcus sp.
Summary of the method: (§1)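 NCCLS M7-A2 broth dilution with Mueller-Hinton II, testing 64-0.06 μg/mL antibiotic against 5×10^5 CFU/mL inocula. Test strains include recent methicillin-, penicillin- or vancomycin-resistant clinical isolates. MIC is the lowest concentration preventing growth.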

Escherichia coli = system: Escherichia coli
Summary of the method: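 NCCLS M7-A2 broth dilution; Muller-Hinton II […]; 5×10^5 CFU/mL; 64-0.06 μg/mL. MIC = lowest concentration with no growth.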

Staphylococcus sp. = system: Staphylococcus sp.
Summary of the method: as §1

Streptococcus sp. = system: Streptococcus sp.
Summary of the method: as §1

[1] = Enterococcus faecalis (ATCC 29212)
[2] = Enterococcus faecalis (GC 2242)
[3] = Enterococcus faecalis (GC 4552)
[4] = Enterococcus faecalis (GC 4553)
[5] = Enterococcus faecalis (GC 4554)
[6] = broth dilution, inoculum 5×10^5 CFU/mL
[7] = Coagulase Negative Staphylococcus (GC 4547)
[8] = Coagulase Negative Staphylococcus (GC 4548)
[9] = Coagulase Negative Staphylococcus (GC 4549)
[10] = Coagulase Negative Staphylococcus (GC 4551)
[11] = Staphylococcus aureus (ATCC 29213)
[12] = Staphylococcus aureus (GC 1131)
[13] = Staphylococcus aureus (GC 4541)
[14] = Staphylococcus aureus (GC 4542)
[15] = Staphylococcus aureus (GC 4544)
[16] = Staphylococcus aureus (GC 4545)
[17] = Staphylococcus aureus-SMITH (GC 4543)
[18] = Staphylococcus haemolyticus (GC 4546)
[19] = Streptococcus agalactiae (GC 4564)
[20] = Streptococcus pneumoniae (GC 4565)

Compound: CCOc1cc(COCC2OC(OC3C(CO)OC(Oc4ccc(CC5NC(=O)C(C(C)c6ccccc6)NC(=O)CNC(=O)C(CO)NC(=O)C(C(O)C6CNC(=N)N6C6OC(CO)C(O)C(O)C6O)NC(=O)C(C(O)C6CNC(=N)N6)NC5=O)cc4)C(O)C3O)C(O)C(O)C2O)ccc1OC (stereo not drawn) [Example 238]
- MIC Enterococcus avium (GC 4558) (Enterococcus sp.; Enterococcus avium (GC 4558)): 16 µg/mL (≈ 11 µM)
- MIC Enterococcus faecalis (ATCC 29212) (Enterococcus sp.; [1]): 16 µg/mL (≈ 11 µM)
- MIC Enterococcus faecalis (GC 2242) (Enterococcus sp.; [2]): 16 µg/mL (≈ 11 µM)
- MIC Enterococcus faecalis (GC 2691) (Enterococcus sp.; Enterococcus faecalis (GC 2691)): 16 µg/mL (≈ 11 µM)
- MIC Enterococcus faecalis (GC 3059) (Enterococcus sp.; Enterococcus faecalis (GC 3059)): 32 µg/mL (≈ 21.9 µM)
- MIC Enterococcus faecalis (GC 4552) (Enterococcus sp.; [3]): 32 µg/mL (≈ 21.9 µM)
- MIC Enterococcus faecalis (GC 4553) (Enterococcus sp.; [4]): 32 µg/mL (≈ 21.9 µM)
- MIC Enterococcus faecalis (GC 4554) (Enterococcus sp.; [5]): 32 µg/mL (≈ 21.9 µM)
- MIC Enterococcus faecalis (GC 6189) (Enterococcus sp.; Enterococcus faecalis (GC 6189)): 16 µg/mL (≈ 11 µM)
- MIC Enterococcus faecium (GC 2243) (Enterococcus sp.; Enterococcus faecium (GC 2243)): 16 µg/mL (≈ 11 µM)
- MIC Enterococcus faecium (GC 4556) (Enterococcus sp.; Enterococcus faecium (GC 4556)): 32 µg/mL (≈ 21.9 µM)
- MIC Enterococcus faecium (GC 4557) (Enterococcus sp.; Enterococcus faecium (GC 4557)): 4 µg/mL (≈ 2.74 µM)
- MIC Enterococcus faecalis (GC 2242) (Enterococcus sp.; [6]): 16 µg/mL (≈ 11 µM)
- MIC Enterococcus faecalis (GC 2691) (Enterococcus sp.; [6]): 16 µg/mL (≈ 11 µM)
- MIC Enterococcus faecalis (GC 3059) (Enterococcus sp.; [6]): 32 µg/mL (≈ 21.9 µM)
- MIC Escherichia coli (ATCC 25922) (Escherichia coli): >64 µg/mL
- MIC Escherichia coli (GC 4559) (Escherichia coli): >64 µg/mL
- MIC Escherichia coli (GC 4560) (Escherichia coli): 2 µg/mL (≈ 1.37 µM)
- MIC Coagulase Negative Staphylococcus (GC 4547) (Staphylococcus sp.; [7]): 2 µg/mL (≈ 1.37 µM)
- MIC Coagulase Negative Staphylococcus (GC 4548) (Staphylococcus sp.; [8]): 2 µg/mL (≈ 1.37 µM)
- MIC Coagulase Negative Staphylococcus (GC 4549) (Staphylococcus sp.; [9]): 2 µg/mL (≈ 1.37 µM)
- MIC Coagulase Negative Staphylococcus (GC 4551) (Staphylococcus sp.; [10]): 4 µg/mL (≈ 2.74 µM)
- MIC Coagulase Negative Staphylococcus (GC 6257) (Staphylococcus sp.; Coagulase Negative Staphylococcus (GC 6257)): 1 µg/mL (≈ 0.685 µM)
- MIC Staphylococcus aureus (ATCC 29213) (Staphylococcus sp.; [11]): 4 µg/mL (≈ 2.74 µM)
- MIC Staphylococcus aureus (GC 1131) (Staphylococcus sp.; [12]): 4 µg/mL (≈ 2.74 µM)
- MIC Staphylococcus aureus (GC 3051) (Staphylococcus sp.; Staphylococcus aureus (GC 3051)): 4 µg/mL (≈ 2.74 µM)
- MIC Staphylococcus aureus (GC 3053) (Staphylococcus sp.; Staphylococcus aureus (GC 3053)): 8 µg/mL (≈ 5.48 µM)
- MIC Staphylococcus aureus (GC 4541) (Staphylococcus sp.; [13]): 4 µg/mL (≈ 2.74 µM)
- MIC Staphylococcus aureus (GC 4542) (Staphylococcus sp.; [14]): 4 µg/mL (≈ 2.74 µM)
- MIC Staphylococcus aureus (GC 4544) (Staphylococcus sp.; [15]): 8 µg/mL (≈ 5.48 µM)
- MIC Staphylococcus aureus (GC 4545) (Staphylococcus sp.; [16]): 2 µg/mL (≈ 1.37 µM)
- MIC Staphylococcus aureus-SMITH (GC 4543) (Staphylococcus sp.; [17]): 4 µg/mL (≈ 2.74 µM)
- MIC Staphylococcus haemolyticus (GC 4546) (Staphylococcus sp.; [18]): 2 µg/mL (≈ 1.37 µM)
- MIC Streptococcus agalactiae (GC 4564) (Streptococcus sp.; [19]): 2 µg/mL (≈ 1.37 µM)
- MIC Streptococcus pneumoniae (ATCC 6301) (Streptococcus sp.; Streptococcus pneumoniae (ATCC 6301)): 1 µg/mL (≈ 0.685 µM)
- MIC Streptococcus pneumoniae (GC 1894) (Streptococcus sp.; Streptococcus pneumoniae (GC 1894)): 0.5 µg/mL (≈ 0.343 µM)
- MIC Streptococcus pneumoniae (GC 4565) (Streptococcus sp.; [20]): 1 µg/mL (≈ 0.685 µM)
- MIC Streptococcus pyogenes (GC 4563) (Streptococcus sp.; Streptococcus pyogenes (GC 4563)): 1 µg/mL (≈ 0.685 µM)
- MIC Streptococcus agalactiae (GC 4564) (Streptococcus sp.; [6]): 2 µg/mL (≈ 1.37 µM)
- MIC Streptococcus pneumoniae (ATCC 6301) (Streptococcus sp.; [6]): 1 µg/mL (≈ 0.685 µM)
- MIC Streptococcus pneumoniae (GC 1894) (Streptococcus sp.; [6]): 0.5 µg/mL (≈ 0.343 µM)
- MIC Streptococcus pneumoniae (GC 4565) (Streptococcus sp.; [6]): 1 µg/mL (≈ 0.685 µM)
- MIC Streptococcus pyogenes (GC 4563) (Streptococcus sp.; [6]): 1 µg/mL (≈ 0.685 µM)

Compound: β-O-[(Pentylamino)carbonyl]-cyclo[glycyl-β-methylphenylalanyl-O-(4-O-hexopyranosylhexopyranosyl)tyrosyl-3-(2-iminoimidazolidin-4-yl)seryl-3-(3-hexopyranosyl-2-iminoimidazolidin-4-yl)serylseryl] [Example 251a]
- MIC Enterococcus avium (GC 4558) (Enterococcus sp.; Enterococcus avium (GC 4558)): >64 µg/mL
- MIC Enterococcus faecalis (ATCC 29212) (Enterococcus sp.; [1]): >64 µg/mL
- MIC Enterococcus faecalis (GC 2242) (Enterococcus sp.; [2]): >64 µg/mL
- MIC Enterococcus faecalis (GC 4552) (Enterococcus sp.; [3]): >64 µg/mL
- MIC Enterococcus faecalis (GC 4553) (Enterococcus sp.; [4]): >64 µg/mL
- MIC Enterococcus faecalis (GC 4554) (Enterococcus sp.; [5]): >64 µg/mL
- MIC Enterococcus faecium (GC 2243) (Enterococcus sp.; Enterococcus faecium (GC 2243)): >64 µg/mL
- MIC Enterococcus faecium (GC 4556) (Enterococcus sp.; Enterococcus faecium (GC 4556)): >64 µg/mL
- MIC Enterococcus faecium (GC 4557) (Enterococcus sp.; Enterococcus faecium (GC 4557)): 16 µg/mL
- MIC Enterococcus faecalis (ATCC 29212) (Enterococcus sp.; broth dilution, strain ATCC 29212): >64 µg/mL
- MIC Enterococcus faecalis (GC 2242) (Enterococcus sp.; broth dilution, strain GC 2242): >64 µg/mL
- MIC Enterococcus faecium (GC 2243) (Enterococcus sp.; broth dilution, strain GC 2243): >64 µg/mL
- MIC Enterococcus faecalis (GC 4552) (Enterococcus sp.; broth dilution, strain GC 4552): >64 µg/mL
- MIC Enterococcus faecalis (GC 4553) (Enterococcus sp.; broth dilution, strain GC 4553): >64 µg/mL
- MIC Enterococcus faecalis (GC 4554) (Enterococcus sp.; broth dilution, strain GC 4554): >64 µg/mL
- MIC Enterococcus faecium (GC 4556) (Enterococcus sp.; broth dilution, strain GC 4556): >64 µg/mL
- MIC Enterococcus faecium (GC 4557) (Enterococcus sp.; broth dilution, strain GC 4557): 16 µg/mL
- MIC Enterococcus avium (GC 4558) (Enterococcus sp.; broth dilution, strain GC 4558): >64 µg/mL
- MIC Escherichia coli (ATCC 25922) (Escherichia coli): >64 µg/mL
- MIC Escherichia coli (GC 4559) (Escherichia coli): >64 µg/mL
- MIC Escherichia coli (GC 4560) (Escherichia coli): 8 µg/mL
- MIC Coagulase Negative Staphylococcus (GC 4547) (Staphylococcus sp.; [7]): 64 µg/mL
- MIC Coagulase Negative Staphylococcus (GC 4548) (Staphylococcus sp.; [8]): 64 µg/mL
- MIC Coagulase Negative Staphylococcus (GC 4549) (Staphylococcus sp.; [9]): 32 µg/mL
- MIC Coagulase Negative Staphylococcus (GC 4551) (Staphylococcus sp.; [10]): >64 µg/mL
- MIC Coagulase Negative Staphylococcus (ID-3941) (Staphylococcus sp.; Coagulase Negative Staphylococcus (ID-3941)): 16 µg/mL
- MIC Staphylococcus aureus (ATCC 29213) (Staphylococcus sp.; [11]): >64 µg/mL
- MIC Staphylococcus aureus (GC 1131) (Staphylococcus sp.; [12]): >64 µg/mL
- MIC Staphylococcus aureus (GC 4541) (Staphylococcus sp.; [13]): 64 µg/mL
- MIC Staphylococcus aureus (GC 4542) (Staphylococcus sp.; [14]): 64 µg/mL
- MIC Staphylococcus aureus (GC 4544) (Staphylococcus sp.; [15]): >64 µg/mL
- MIC Staphylococcus aureus (GC 4545) (Staphylococcus sp.; [16]): 64 µg/mL
- MIC Staphylococcus aureus-SMITH (GC 4543) (Staphylococcus sp.; [17]): 64 µg/mL
- MIC Staphylococcus haemolyticus (GC 4546) (Staphylococcus sp.; [18]): 64 µg/mL
- MIC Staphylococcus aureus (ATCC 29213) (Staphylococcus sp.; broth dilution, strain ATCC 29213): >64 µg/mL
- MIC Staphylococcus aureus (GC 1131) (Staphylococcus sp.; broth dilution, strain GC 1131): >64 µg/mL
- MIC Staphylococcus aureus (GC 4541) (Staphylococcus sp.; broth dilution, strain GC 4541): 64 µg/mL
- MIC Staphylococcus aureus (GC 4542) (Staphylococcus sp.; broth dilution, strain GC 4542): 64 µg/mL
- MIC Staphylococcus aureus-SMITH (GC 4543) (Staphylococcus sp.; broth dilution, strain GC 4543): 64 µg/mL
- MIC Staphylococcus aureus (GC 4544) (Staphylococcus sp.; broth dilution, strain GC 4544): >64 µg/mL
- MIC Staphylococcus aureus (GC 4545) (Staphylococcus sp.; broth dilution, strain GC 4545): 64 µg/mL
- MIC Staphylococcus haemolyticus (GC 4546) (Staphylococcus sp.; broth dilution, strain GC 4546): 64 µg/mL
- MIC Coagulase Negative Staphylococcus (GC 4547) (Staphylococcus sp.; broth dilution, strain GC 4547): 64 µg/mL
- MIC Coagulase Negative Staphylococcus (GC 4548) (Staphylococcus sp.; broth dilution, strain GC 4548): 64 µg/mL
- MIC Coagulase Negative Staphylococcus (GC 4549) (Staphylococcus sp.; broth dilution, strain GC 4549): 32 µg/mL
- MIC Coagulase Negative Staphylococcus (GC 4551) (Staphylococcus sp.; broth dilution, strain GC 4551): >64 µg/mL
- MIC Coagulase Negative Staphylococcus (ID-3941) (Staphylococcus sp.; broth dilution, strain ID-3941): 16 µg/mL
- MIC Streptococcus agalactiae (GC 4564) (Streptococcus sp.; [19]): 32 µg/mL
- MIC Streptococcus pneumoniae (GC 4565) (Streptococcus sp.; [20]): 8 µg/mL
- MIC Streptococcus pyogenes (ID-3187) (Streptococcus sp.; Streptococcus pyogenes (ID-3187)): 16 µg/mL
- MIC Streptococcus agalactiae (GC 4564) (Streptococcus sp.; broth dilution, strain GC 4564): 32 µg/mL
- MIC Streptococcus pneumoniae (GC 4565) (Streptococcus sp.; broth dilution, strain GC 4565): 8 µg/mL
- MIC Streptococcus pyogenes (ID-3187) (Streptococcus sp.; broth dilution, strain ID-3187): 16 µg/mL
